Experiment [1] relates to MCF-7 cells (with PI3Kα E545K mutation). Put plainly: In vitro inhibition of MCF-7 cell proliferation (CellTiter-Lumi). The following applies: Homo sapiens, MCF7, 144 h, numeric values, read-out: Inhibitory activity against MCF-7 cells (IC50). It is filed as cell-based. The method, then:
Biological Example 3. Assay for In Vitro Inhibition of MCF-7 Cell Proliferation by Compounds of the Present Disclosure
MCF-7 cells (with PI3Kα E545K mutation) were seeded into a 384-well plate (Fisher 142762) at 2000 cells per well. The next day, serially diluted compounds were added, and 144 h after the addition, CellTiter-Lumi (Beyotime C0068XL) was added to measure the ATP content in the cells. The growth of the cells was evaluated, and the IC50 for the inhibition of cell growth by the compounds was calculated.

Experiment [2] concerns HCC1954 cells (with PI3Kα H1047R mutation). The experiment in a line: In vitro inhibition of HCC1954 cell proliferation (CellTiter-Lumi). The format is cell-based. The note with it: Homo sapiens, HCC1954, 144 h, read-out: Inhibitory activity against HCC1954 cells (IC50). The method, then:
Assay for In Vitro Inhibition of HCC1954 Cell Proliferation by Compounds of the Present Disclosure
The growth of the cells was evaluated, and the IC50 for the inhibition of cell growth by the compounds was calculated.

Setting [3] is: HCC1954 cells, 144 h, CellTiter-Lumi, numeric values.

Like-named read-outs stand apart in the source and are kept apart here.

On to `C=CC(=O)N1CC(N2CC[C@H](CN3CCN(c4ccc5c(c4)-c4nc(N6C(=O)OC[C@H]6C(F)F)cn4CCO5)CC3)C2)C1` [Compound 92], for which the IC50 (as a rule, the concentration that gives 50% inhibition) in experiment [1] came to 20 nM; in experiment [2] (setting [3]), 200 nM.
`C=CC(=O)Nc1ccc(N2CC3(CCN(c4ccc5c(c4)-c4nc(N6C(=O)OC[C@H]6C(F)F)cn4CCO5)C3)C2)cc1` [Compound 93]: the IC50 in experiment [1] worked out at 76 nM; in experiment [2] (setting [3]) it was 551 nM.
The matching figures for `C=CC(=O)Nc1ccc(N2CCC3(CCN(c4ccc5c(c4)-c4nc(N6C(=O)OC[C@H]6C(F)F)cn4CCO5)CC3)C2)cc1` [Compound 94]: 76 nM and 300 nM.
The matching figures for `C=CC(=O)Nc1ccc(N2CC(N3CCN(c4cc5c(cc4OC)OCCn4cc(N6C(=O)OC[C@H]6C(F)F)nc4-5)CC3)C2)cc1` [Compound 98]: 6.7 nM and 59 nM.
The matching figures for `C=C(F)C(=O)Nc1ccc(N2CC(N3CCN(c4ccc5c(c4)-c4nc(N6C(=O)OC[C@H]6C(F)F)cn4CCO5)CC3)C2)cc1` [Compound 99]: 11 nM and 53 nM.
Turning to `C=C(C)C(=O)Nc1ccc(N2CC(N3CCN(c4ccc5c(c4)-c4nc(N6C(=O)OC[C@H]6C(F)F)cn4CCO5)CC3)C2)cc1` [Compound 100], the IC50 in experiment [1] amounted to 22 nM; in experiment [2] (setting [3]), 66 nM.
The matching figures for `C/C=C/C(=O)Nc1ccc(N2CC(N3CCN(c4ccc5c(c4)-c4nc(N6C(=O)OC[C@H]6C(F)F)cn4CCO5)CC3)C2)cc1` [Compound 101]: 38 nM and 83 nM.
The matching figures for `C=CC(=O)Nc1ccc(N2CC(N3CCN(c4cc5c(cc4F)OCCn4cc(N6C(=O)OC[C@H]6C(F)F)nc4-5)CC3)C2)cc1` [Compound 102]: 23 nM and 232 nM.
The matching figures for `C=CC(=O)Nc1ccc(N2CC(N3CC=C(c4ccc5c(c4)-c4nc(N6C(=O)OC[C@H]6C(F)F)cn4CCO5)CC3)C2)cc1` [Compound 103]: 2 nM and 23 nM.
As for `C=CC(=O)Nc1ccc(N2CC(N3CCC(c4ccc5c(c4)-c4nc(N6C(=O)OC[C@H]6C(F)F)cn4CCO5)CC3)C2)cc1` [Compound 104], the IC50 in experiment [1] was 4.6 nM; in experiment [2] (setting [3]), 65 nM.
The matching figures for `C=CC(=O)N1CCC(N2CC(N3CCN(c4ccc5c(c4)-c4nc(N6C(=O)OC[C@H]6C(F)F)cn4CCO5)CC3)C2)CC1` [Compound 105]: 23 nM and 620 nM.
For `C=CC(=O)Nc1ccc(N2CC(N3CCN(c4ccc5c(c4)-c4nc(N6C(=O)SC[C@H]6C(F)F)cn4CCO5)CC3)C2)cc1` [Compound 106], the IC50 was determined as 0.14 nM in experiment [1] and 6 nM in experiment [2] (setting [3]).
As for `C=CC(=O)Nc1ccc(N2CC(N3CCC4(c5ccc6c(c5)-c5nc(N7C(=O)OC[C@H]7C(F)F)cn5CCO6)CC4C3)C2)cc1` (stereo partly shown) [Compound 107], the IC50 in experiment [1] is 16 nM; in experiment [2], 131 nM.
For `C=CC(=O)Nc1ccc(N2CC(N3CCN(c4ccc5c(c4)-c4nc(-c6nc(C)nn6C(C)C)cn4CCO5)CC3)C2)cc1` [Compound 111], the values for the IC50 in experiment [1] and in experiment [2] (setting [3]) were 0.1 nM and 2.5 nM, respectively.
As to `C=CC(=O)Nc1ccc(N2CC(N3CCN(c4ccc5c(c4)-c4nc(N6C(=O)OC[C@H]6C(F)F)cn4CCO5)CC3)C2)cn1` [Compound 121], the IC50 in experiment [1] is 0.2 nM; in experiment [2] (setting [3]), 3 nM.
On to `C=CC(=O)Nc1ccc(N2CC(N3CCN(c4ccc5c(c4)-c4nc(N6C(=O)OC[C@H]6C(F)F)cn4CCO5)CC3)C2)nc1` [Compound 122], for which the IC50 came to 0.4 nM in experiment [1] and 7 nM in experiment [2] (setting [3]).
The matching figures for `C=CC(=O)Nc1ccc(N2CC(N3CCN(c4ccc5c(c4)-c4nc(N6C(=O)OC[C@H]6C(F)F)cn4CCO5)CC3)C2)c(F)c1` [Compound 123]: 0.9 nM and 5.3 nM.
The matching figures for `C=CC(=O)Nc1ccc(N2CC(N3CCN(c4ccc5c(c4)-c4nc(N6C(=O)OC[C@H]6C(F)F)cn4CCO5)CC3)C2)cc1F` [Compound 124]: 2.7 nM and 9 nM.
The matching figures for `C=CC(=O)Nc1ccc(N2CC(N3CCN(c4ccc5c(c4)-c4nc(N6C(=O)OC[C@H]6C(F)F)cn4CCO5)CC3)C2)c(C)c1` [Compound 129]: 0.3 nM and 6.9 nM.
For the compound `C=CC(=O)Nc1ccc(N2CC(C3CCN(c4ccc5c(c4)-c4nc(N6C(=O)OC[C@H]6C(F)F)cn4CCO5)CC3)C2)cc1` [Compound 130], the IC50 was 14 nM in experiment [1] and 70 nM in experiment [2] (setting [3]).
The matching figures for `C=CC(=O)Nc1ccc(N2CC(N3CCN(c4ccc5c(c4)-c4nc(N6C(=O)OC[C@H]6C)cn4CCO5)CC3)C2)cc1` [Compound 131]: 15 nM and 84 nM.
The matching figures for `CC#CC(=O)Nc1ccc(N2CC(N3CCN(c4ccc5c(c4)-c4nc(N6C(=O)OC[C@H]6C(F)F)cn4CCO5)CC3)C2)cc1` [Compound 132]: 3.3 nM and 45 nM.
The matching figures for `C=CC(=O)Nc1cnc(N2CC(N3CCN(c4ccc5c(c4)-c4nc(N6C(=O)OC[C@H]6C(F)F)cn4CCO5)CC3)C2)nc1` [Compound 133]: 0.4 nM and 4.3 nM.
For `C=CC(=O)N1CCc2cc(N3CC(N4CCN(c5ccc6c(c5)-c5nc(N7C(=O)OC[C@H]7C(F)F)cn5CCO6)CC4)C3)ccc21` [Compound 134], the IC50 in experiment [1] amounted to 0.2 nM; in experiment [2] (setting [3]) it was 2.7 nM.
The matching figures for `C=CC(=O)Nc1cc(N2CC(N3CCN(c4ccc5c(c4)-c4nc(N6C(=O)OC[C@H]6C(F)F)cn4CCO5)CC3)C2)n(C)n1` [Compound 135]: 1.5 nM and 16 nM.
The matching figures for `CC(C)(C)C=C(C#N)C(=O)Nc1ccc(N2CC(N3CCN(c4ccc5c(c4)-c4nc(N6C(=O)OC[C@H]6C(F)F)cn4CCO5)CC3)C2)cc1` [Compound 136]: 29 nM and 71 nM.
For the compound `CC(C)(N)C=C(C#N)C(=O)Nc1ccc(N2CC(N3CCN(c4ccc5c(c4)-c4nc(N6C(=O)OC[C@H]6C(F)F)cn4CCO5)CC3)C2)cc1` [Compound 137], the figures for the IC50 in experiment [1] and in experiment [2] (setting [3]) were 0.1 nM and 0.6 nM, respectively.
The matching figures for `CC(C)(C=C(C#N)C(=O)Nc1ccc(N2CC(N3CCN(c4ccc5c(c4)-c4nc(N6C(=O)OC[C@H]6C(F)F)cn4CCO5)CC3)C2)cc1)N1CCOCC1` [Compound 138]: 35 nM and 109 nM.
The matching figures for `C=CC(=O)Nc1ccc(N2CC(N3CCN(c4ccc5c(c4)-c4nc(N6C(=O)OC[C@H]6C(F)F)cn4CCO5)CC3)C2)cc1C` [Compound 139]: 0.6 nM and 6.7 nM.
Take `C=CC(=O)Nc1cc(C)c(N2CC(N3CCN(c4ccc5c(c4)-c4nc(N6C(=O)OC[C@H]6C(F)F)cn4CCO5)CC3)C2)cn1` [Compound 140]: the concentration for half-maximal inhibition (IC50) came out at 0.3 nM in experiment [1] and 6 nM in experiment [2] (setting [3]).
On to `CC(C)(C=C(C#N)C(=O)Nc1ccc(N2CC(N3CCN(c4ccc5c(c4)-c4nc(N6C(=O)OC[C@H]6C(F)F)cn4CCO5)CC3)C2)cc1)N1CC2(COC2)C1` [Compound 141], for which the IC50 in experiment [1] turned out to be 0.6 nM; in experiment [2] (setting [3]), 6.7 nM.
Turning to `C=CC(=O)Nc1ccc(N2CC(N3CCN(c4ccc5c(c4)-c4nc(N6C(=O)OC[C@H]6C(F)F)cn4CCO5)CC3)C2)cc1C(F)(F)F` [Compound 142], the values for the IC50 in experiment [1] and in experiment [2] (setting [3]) were 0.5 nM and 8.3 nM, respectively.
The matching figures for `C=CC(=O)Nc1ccc(N2CC(N3CCN(c4ccc5c(c4)-c4nc(N6C(=O)OC[C@H]6C(F)F)cn4CCO5)CC3)C2)cc1C#N` [Compound 143]: 0.1 nM and 2.2 nM.
Turning to `CC(C)C=C(C#N)C(=O)Nc1ccc(N2CC(N3CCN(c4ccc5c(c4)-c4nc(N6C(=O)OC[C@H]6C(F)F)cn4CCO5)CC3)C2)cc1` [Compound 144], the values for the IC50 in experiment [1] and in experiment [2] (setting [3]) were 22 nM and 55 nM, respectively.
For `CNC(C)(C)C=C(C#N)C(=O)Nc1ccc(N2CC(N3CCN(c4ccc5c(c4)-c4nc(N6C(=O)OC[C@H]6C(F)F)cn4CCO5)CC3)C2)cc1` [Compound 145], the IC50 amounted to 0.1 nM in experiment [1] and 0.6 nM in experiment [2] (setting [3]).
The matching figures for `C=CC(=O)N(C)c1ccc(N2CC(N3CCN(c4ccc5c(c4)-c4nc(N6C(=O)OC[C@H]6C(F)F)cn4CCO5)CC3)C2)cc1` [Compound 146]: 6.6 nM and 75 nM.
On to `C=CC(=O)Nc1ccc(N2CC(N3CCN(c4ccc5c(c4)-c4nc(N6C(=O)OC[C@H]6C)cn4CCO5)CC3)C2)cn1` [Compound 147], for which the figures for the 50% inhibitory concentration (IC50) in experiment [1] and in experiment [2] (setting [3]) were 1.5 nM and 29 nM, respectively.
The matching figures for `CN(C)C/C=C/C(=O)Nc1ccc(N2CC(N3CCN(c4ccc5c(c4)-c4nc(N6C(=O)OC[C@H]6C(F)F)cn4CCO5)CC3)C2)cn1` [Compound 148]: 0.2 nM and 10 nM.
The matching figures for `CC#CC(=O)Nc1ccc(N2CC(N3CCN(c4ccc5c(c4)-c4nc(N6C(=O)OC[C@H]6C(F)F)cn4CCO5)CC3)C2)c(F)c1` [Compound 149]: 16 nM and 115 nM.
Take `CN(C)C(C)(C)C=C(C#N)C(=O)Nc1ccc(N2CC(N3CCN(c4ccc5c(c4)-c4nc(N6C(=O)OC[C@H]6C(F)F)cn4CCO5)CC3)C2)cc1` [Compound 150]: the IC50 in experiment [1] amounted to 35 nM; in experiment [2] (setting [3]) it was 121 nM.
For `C=CC(=O)Nc1ccc(N2CC(N3CCN(c4ccc5c(c4)-c4nc(N6C(=O)OC[C@H]6C(F)F)cn4CCO5)CC3)C2)c(C)n1` [Compound 151], the 50% inhibitory concentration (IC50) in experiment [1] is 0.3 nM; in experiment [2] (setting [3]), 5.6 nM.

The record behind these values is patent publication US20260193268A1, “TRICYCLIC PI3Ka INHIBITOR, PREPARATION METHOD THEREFOR, AND PHARMACEUTICAL USE THEREOF” (WIGEN BIOMEDICINE TECHNOLOGY (SHANGHAI) CO., LTD., priority 2022, published 2026).
